Measurements: US20250019700A1, “TREATING CHEMORESISTANT FORMS OF LEUKEMIA AND OTHER CANCERS THAT OVEREXPRESS RNA BINDING PROTEIN FXR1” (The General Hospital Corporation, priority 2021, published 2025)

Key:
Format in all cases: cell-based
PKR = experiment: Western blot of phosphorylated PKR in AraC treated cells; details: AraC treated cells (0, 1, 5 μM AraC), normalized to total PKR
Protocol: Cells were collected and resuspended in lysis buffer containing 40 mM Tris-HCl (pH 7.4), 6 mM MgCl2, 150 mM NaCl, 0.1% NP-40, 1 mM DTT, 20 mM, 17.5 mM β-glycerophosphate, 5 mM NaF and protease inhibitors. Samples containing 80 μg of protein were loaded onto 4%-20% gradient SDS-PAGE (Bio-Rad) or 16% SDS-PAGE (Invitrogen), transferred to PVDF membranes and processed for immunoblotting. Antibodies against FXR1 (used for Western), Actin, Tubulin were from Millipore; NOLC1, DDX21, PolR1D, RPLP0, RPLP2, RPL29, RPL11, FXR1 (used for Immunoprecipitation) were from Protein Tech; PKR, P—PKR, EIF2α, P-EIF2α, GCN2 (used for immunoprecipitation) were from Cell Signaling; P-GCN2, GCN2 (used for Western) were from abcam.

[1] = system: 28S rRNA snoRA22 sites U4966 and U4975; experiment: Low dNTP CMCT qPCR assay of rRNA pseudouridylation; details: AraC cells (THP1)
Protocol: For analysis of 2′O-methylation, RNA was prepared from indicated cells. Reverse transcription (as described above in qPCR) was performed with primers in the reverse orientation from the modification site on ribosomal RNA. Two different dNTP concentrations were used for each primer, low (0.025 mM) and high (2.5 mM). qPCR was done with the resulting cDNA using primers at forward and reverse orientation to the modified sites. Fold change in modification was calculated based on difference of Ct values in the low and high dNTP conditions. For analyzing pseudouridylation, first the RNA was treated with CMCT (1-cyclohexyl-(2-morpholinoethyl) carbodiimide metho-p-toluene sulfonate) under alkaline conditions. Rest of the experiment was done as described above for 2′O-methylation.

FXR1 = experiment: Western blot of FXR1 levels in AraC treated THP1 cells; details: AraC treated surviving THP1 cells compared to untreated (1 μM AraC, FIG. 1A)
Protocol: (§1) THP1 cells were cultured in […] media supplemented with 10% fetal bovine serum (FBS), 2 mM L-Glutamine, 100 μg/mL streptomycin and 100 U/ml penicillin at 37° C. in 5% CO2. SS THP1 cells were prepared by washing with PBS followed by serum-starvation at a density of 2×10^5 cells/mL and AraCS cells, by treatment with indicated concentrations of AraC for indicated periods of time. THP1 (TIB-202) and MV4:11 (CRL-9591) were obtained from ATCC. MOLM13 (ACC554) were obtained from DSMZ. Cell lines kindly provided by David Scadden.
(§2) Cells were collected and resuspended in lysis buffer containing 40 mM Tris-HCl (pH 7.4), 6 mM MgCl2, 150 mM NaCl, 0.1% NP-40, 1 mM DTT, […], 17.5 mM β-glycerophosphate, 5 mM NaF and protease inhibitors. Samples containing 80 μg of protein were loaded onto 4%-20% gradient SDS-PAGE (Bio-Rad) or 16% SDS-PAGE (Invitrogen), transferred to PVDF membranes and processed for immunoblotting.
Antibodies against FXR1 (used for Western), Actin, Tubulin were from Millipore; NOLC1, DDX21, PolR1D, RPLP0, RPLP2, RPL29, RPL11, FXR1 (used for Immunoprecipitation) were from Protein Tech; PKR, P—PKR, EIF2α, P-EIF2α, GCN2 (used for immunoprecipitation) were from Cell Signaling; P-GCN2, GCN2 (used for Western) were from abcam.

[2] = system: FXR1-overexpression cells; experiment: Polysome analysis followed by qPCR of mRNAs, with or without ISRIB; details: FXR1 OE cells, 1 μM trans-ISRIB for 24 h
Protocol: Sucrose was dissolved in lysis buffer containing 100 mM KCl, 5 mM MgCl2, 2 mM DTT and 10 mM Tris-HCl (pH 7.4). Sucrose gradients from 10% to 55% were prepared in ultracentrifuge tubes (Beckman). Harvested cells were rinsed with ice-cold PBS and resuspended in lysis buffer with 1% Triton X-100 and 40 U/mL […] (New England Biolabs) for 20 minutes with intermittent tapping on ice. After centrifugation of cell lysates at 12,000×g for 20 minutes, supernatants were loaded onto sucrose gradients followed by ultracentrifugation (Beckman Coulter Optima L90) at 32,500×rpm at 4° C. for 80 min in the SW40 rotor. Samples were separated by density gradient fractionation system (Biocomp Piston Gradient Fractionation). RNAs were purified by using TRIzol (Invitrogen) from heavy polysome fractions and whole cell lysates. The synthesized cDNA probes from WT Expression Kit (Ambion) were hybridized to Gene Chip Human Transcriptome Array 2.0 (Affymetrix) and analyzed by the Partners Healthcare Center for Personalized Genetic Medicine Microarray and BUMC facilities. Gene ontology analysis for differentially expressed translatome or proteome was conducted by DAVID 6.7 tools. Molecular signatures enriched in FXR1 OE and Control cells were identified by Gene Set Enrichment Analysis (GSEA).
Total RNA was isolated using TRIzol (Invitrogen) according to the manufacturer's instructions. […]

ATF4 = experiment: Western blot of non-canonical translation target ATF4 with ISRIB; details: in the presence of ISRIB
Protocol: as §2

G0 cells (THP1) = experiment: Chemosurvival of G0 cells treated with ISRIB and AraC; details: ISRIB and AraC (FIG. 4H)
Protocol: as §1
(§3) Cytarabine (AraC), Trans-ISRIB, FX-1, and Toyocamycin were obtained from Cayman Chemicals. For polysome analysis, FXR1 OE and control cells were treated with 1 μM trans-ISRIB for 24 h. For cell viability FXR1 OE and control cells were treated individually or with a combination of 5 μM AraC and 1 μM trans-ISRIB for 24 h; 100 nM Toyocamycin and 1 μM AraC; 10 μM FX-1 and 5 μM AraC.

FXR1 OE cells (THP1) = experiment: Chemosurvival (fraction of cell viability) of FXR1 OE cells treated with AraC plus inhibitor
Protocol: as §1
THP1 FXR1 OE cell lines were created by infecting cells with an FXR1 containing retroviral vector for constitutive over expression of FXR1. Corresponding control cell lines were made by infection with empty vector.
as §3

**Q.** For `Nc1ccn([C@@H]2O[C@H](CO)[C@@H](O)[C@@H]2O)c(=O)n1` [AraC, Cytarabine], which “phosphorylation and activation of PKR” value (PKR) is on record?
**A.** Its value is “increased phosphorylation and activation”.

**Q.** And the “rRNA pseudouridylation at snoRA22 sites on 28S at U4966 and U4975” value [1]?
**A.** The value was “increases”.

**Q.** And the FXR1 protein level (FXR1)?
**A.** The FXR1 protein level was “increases”.

**Q.** What does the source list for `O=C(COc1ccc(Cl)cc1)NC1CCC(NC(=O)COc2ccc(Cl)cc2)CC1` (stereo not drawn) [ISRIB]?
**A.** polysome association of mRNAs that are upregulated in FXR1-overexpressing cells [2]: reduced polysome association; polysome association of other genes like vinculin [2]: without affecting; level of known non-canonical targets such as ATF4 (ATF4): decrease; chemosurvival (G0 cells (THP1)): reduced chemosurvival; chemosurvival (FXR1 OE cells (THP1); FXR1 OE cells, 1 μM trans-ISRIB combined with 5 μM AraC, 24 h, compared to buffer and AraC): reduced chemosurvival

**Q.** For `N#Cc1cn([C@@H]2O[C@H](CO)[C@@H](O)[C@H]2O)c2ncnc(N)c12` [Toyocamycin], which chemosurvival (FXR1 OE cells (THP1); 100 nM Toyocamycin and 1 μM AraC, FXR1 OE and control cells (FIG. 4I)) is on record?
**A.** Its chemosurvival is “decreased”.
